This is an account of results in patent USRE44704E1, “Compositions and methods for treating cancer using immunoconjugates and chemotherapeutic agents” (Immunogen Inc., priority 1999, dated 2014).

Where two headings read alike, the source gives them in different places.

The subject of test [1] is human colon cancer HT-29 cells. Kind of test: Anti-tumor effect of C242-DM1, CPT-11 and their combination in established subcutaneous HT-29 xenograft model (Example 7, FIG. 10). It counts as in vivo. The note with it: HT-29 s.c. xenografts, SCID mice, tumors about 80 mm^3 at start; CPT-11 50 mg/kg×2 q3d i.v.; C242-DM1 DM1 dose 75 μg/kg×5 qd i.v. Here is the method: (§1) A control group of animals received phosphate-buffered saline (PBS) using the same schedule as the animals in group 2. Tumor growth was monitored by measuring tumor size twice per week. Tumor size was calculated using the formula: length×width×height×½.

Test [2] deals with human small cell lung cancer SW-2 cells. Kind of test: Anti-tumor effect of huN901-DM1, docetaxel and their combination in established subcutaneous SW-2 xenograft model (Example 4, FIG. 7). It counts as in vivo. The note with it: SW-2 s.c. xenografts, SCID mice, tumors about 100 mm^3 at start; docetaxel 5 mg/kg×5 q2d i.v.; huN901-DM1 DM1 dose 75 μg/kg×5 qd i.v. The procedure: Tumor size was calculated with the formula: length×width×height×½.
In 3 out of 6 animals in this treatment group, the tumor was eradicated—resulting in cures lasting greater than 200 days. In the remaining 3 animals in this group, there was a tumor growth delay of 52 days, which is 24 days longer than the calculated additive effect.

The subject of test [3] is NCI N417 cells (small cell lung cancer xenografts). It counts as in vivo. The note with it: NCI N417 s.c. xenografts, SCID mice, tumors approx. 100 mm^3 at start; huN901-DM1 DM1 dose 75 μg/kg/d×5 i.v.; paclitaxel 10 mg/kg/d×5 i.p. Here is the method:
In this experiment, a low, non-curative dose of huN901-DM1 was used with an optimal does of paclitaxel (Sigma Chemical Co., St. Louis, Mo.). SCID mice (7 animals per group) were inoculated subcutaneously with NCI N417 cells (8×10^6 cells/animal). After the tumors were well-established (average tumor size was approximately 100 mm^3), one group of animals was treated with huN901-DM1 at a DM1 dose of 75 μg/kg/d×5, administered i.v. everyday. A second group of animals was treated with paclitaxel at a dose of 10 mg/kg/d×5, administered by i.p. everyday. […] A fourth, control group of animals was left untreated. Tumor size was measured as described by Liu et al, Proc. Natl. Acad. Sci., 93:8618-8623 (1996). Animals were also monitored for weight loss as an indicator of signs of toxicity.
In the control group of animals, the tumors grew rapidly to a size of about 900 mm^3 by Day 28 post-tumor inoculation. In animals treated with either huN901-DM1 or paclitaxel, there was a modest anti-tumor effect with a tumor growth delay of 4 days in each case.

Test [4] concerns human lung adenocarcinoma NCI-H441 cells. The note with it: NCI-H441 s.c. xenografts, SCID mice, tumors about 125 mm^3 at start; paclitaxel 15 mg/kg×5 q2d i.p. The procedure: as §1
The subject of test [5] is human small cell lung cancer SW-2 cells. As to the kind of experiment: Anti-tumor effect of huN901-DM1, topotecan and their combination in established subcutaneous SW-2 xenograft model (Example 5, FIG. 8). It counts as in vivo. The note with it: SCID mice. The procedure: FIG. 8 is a graph comparing the anti-tumor activity of (i) a control, (ii) huN901-DM1, (iii) topotecan, and (iv) the combination of huN901-DM1 and topotecan, against small cell lung cancer xenografts in SCID mice.
The anti-tumor effect of a combination of a low dose of huN901-DM1 and topotecan (available as HYCAMTIN® from SmithKline Beecham Pharmaceuticals), one of the approved drugs for the treatment of small cell lung cancer (SCLC) in humans, was evaluated in an established subcutaneous xenograft model of SCLC. SCID mice (24 animals) were inoculated with human small cell lung cancer SW-2 cells (8×10^6 cells/animal) injected subcutaneously into the right flank of the mice. When the tumors reached about 80 mm^3 in size, the mice were randomly divided into four groups (6 animals per group). The first group of mice was treated with topotecan (1.4 mg/kg×5, qd) administered i.v. A second group of animals was treated with huN901-DM1 (DM1 dose of 100 μg/kg×5, qd) administered i.v. The third group of mice received a combination of topotecan and huN901-DM1, using the same doses and schedules as in groups 1 and 2. A control group of animals received phosphate-buffered saline (PBS) using the same schedule as the animals in group 2. Tumor growth was monitored by measuring tumor size twice per week. Tumor size was calculated using the formula: length×width×height×½.

In test [6] the test system is NCI N417 cells (small cell lung cancer xenografts). As to the kind of experiment: Anti-tumor activity of huN901-DM1, cisplatin plus etoposide, and the triple combination against established NCI N417 xenografts (Example 3, FIG. 6). It counts as in vivo. The note with it: NCI N417 s.c. xenografts, SCID mice; huN901-DM1 DM1 dose 75 μg/kg/d×5 i.v.; cisplatin 2 mg/kg/d×3 i.v. every other day; etoposide 8 mg/kg/d×3 every other day. The procedure:
In this experiment, a low, non-curative dose of huN901-DM1 was used with an optimal dose of cisplatin (Sigma Chemical Co., St. Louis, Mo.) and etoposide (Sigma Chemical Co., St. Louis, Mo.). SCID mice (7 animals per group) were inoculated subcutaneously with NCI N417 cells (8×10^6 cells/animal). After the tumors were well-established (average tumor size was approximately 100 mm^3), one group of animals was treated with huN901-DM1 at a DM1 dose of 75 μg/kg/d×5, administered i.v. everyday. A second group of animals was treated with cisplatin (at a dose of 2 mg/kg/d×3, administered by i.v. ever other day) and etoposide (at a dose of 8 mg/kg/d×3, administered every other day). A third group of animals was treated with huN901-DM1, cisplatin and etoposide using the same dose and schedule used for a the individual agents. A fourth, control group of animals was left untreated. Tumor size was measured as described by Liu et al, Proc. Natl. Acad. Sci., 93:8618-8623 (1996). Animals were also monitored for weight loss as an indicator of signs of toxicity.
In the control group of animals, the tumors grew rapidly to a size of about 900 mm^3 by Day 28 post-tumor inoculation. In animals treated with either huN901-DM1 or cisplatin and etoposide, there was a modest anti-tumor effect with a tumor growth delay of 4 days in each case.

Regarding `CCc1c2c(nc3ccc(OC(=O)N4CCC(N5CCCCC5)CC4)cc13)-c1cc3c(c(=O)n1C2)COC(=O)[C@]3(O)CC` [CPT-11, irinotecan], in test [1], the tumor growth delay is listed as 6 days.

Turning to `CC(=O)O[C@@]12CO[C@@H]1C[C@H](O)[C@@]1(C)C(=O)[C@H](O)C3=C(C)[C@@H](OC(=O)[C@H](O)[C@@H](NC(=O)OC(C)(C)C)c4ccccc4)C[C@@](O)([C@@H](OC(=O)c4ccccc4)[C@H]21)C3(C)C` [docetaxel], the tumor growth delay in test [2] is given as 8 days.

Regarding `CC(=O)O[C@H]1C(=O)[C@@]2(C)[C@H]([C@H](OC(=O)c3ccccc3)[C@]3(O)C[C@H](OC(=O)[C@H](O)[C@@H](NC(=O)c4ccccc4)c4ccccc4)C(C)=C1C3(C)C)[C@]1(OC(C)=O)CO[C@@H]1C[C@@H]2O` [paclitaxel], the tumor growth delay in test [3] and in test [4] was 4 days throughout.

Regarding `CC[C@@]1(O)C(=O)OCc2c1cc1n(c2=O)Cc2cc3c(CN(C)C)c(O)ccc3nc2-1` [topotecan], in test [5] (SW-2 s.c. xenografts, tumors about 80 mm^3 at start, topotecan 1.4 mg/kg×5 qd i.v.), the tumor growth delay is 12 days.

B1: huN901-DM1: maytansinoid DM1 conjugated via SPP disulfide link to humanized monoclonal antibody N901 (binds CD56); 3.9 DM1 molecules per antibody (conjugate, chains of the INN, looked up)
VH: QVQLVESGGGVVQPGRSLRLSCAASGFTFSSFGMHWVRQAPGKGLEWVAYISSGSFTIYYADSVKGRFTISRDNSKNTLYLQMNSLRAEDTAVYYCARMRKGYAMDYWGQGTLVTVSS
VL: DVVMTQSPLSLPVTLGQPASISCRSSQIIIHSDGNTYLEWFQQRPGQSPRRLIYKVSNRFSGVPDRFSGSGSGTDFTLKISRVEAEDVGVYYCFQGSHVPHTFGQGTKVEIK
modifications: DM1 via SPP disulfide linker
notes: 3.9 DM1 molecules per antibody
As for B1, the tumor growth delay in test [2] is listed as 20 days; in test [6] it was 4 days; in test [3] it was 4 days. In addition, the “animals with complete tumor regression” value in test [5] (SW-2 xenografts, 6 animals per group, topotecan 1.4 mg/kg×5 qd i.v., huN901-DM1 100 μg/kg×5 qd i.v.) stood at 3 animals. In addition, the “tumor-growth delay in 3 out of 6 animals” value in test [5] (SW-2 xenografts, huN901-DM1 DM1 dose 100 μg/kg×5 qd i.v., the 3 animals without complete regression) worked out at 34 days.
